Test results reported in ChEMBL document CHEMBL5046269, “Multifunctional P450 Monooxygenase CftA Diversifies the Clifednamide Pool through Tandem C-H Bond Activations” (2022).
≈ marks a conversion by molar mass, not a printed value.

Columns and labels:
Format in all cases: functional
Micrococcus luteus = experiment: Antibacterial activity against Micrococcus luteus ATCC 10240 assessed as inhibition of bacterial growth measured after 18 hrs by CLSI protocol based microbroth dilution method
Candida albicans = experiment: Antifungal activity against Candida albicans ATCC 48130 assessed as inhibition of fungal growth measured after 18 hrs by CLSI protocol based microbroth dilution method
Staphylococcus aureus = experiment: Antibacterial activity against Staphylococcus aureus ATCC 11632 assessed as inhibition of bacterial growth measured after 18 hrs by CLSI protocol based microbroth dilution method
Bacillus subtilis = experiment: Antibacterial activity against Bacillus subtilis ATCC 6633 assessed as inhibition of bacterial growth measured after 18 hrs by CLSI protocol based microbroth dilution method

- MIC90 (Micrococcus luteus): 22.4 µM (≈ 10.7 µg/mL)
- MIC90 (Candida albicans): 22.4 µM (≈ 10.7 µg/mL)
- MIC90 (Staphylococcus aureus): 22.4 µM (≈ 10.7 µg/mL)
- MIC90 (Bacillus subtilis): 22.4 µM (≈ 10.7 µg/mL)
SMILES: CC[C@H]1[C@@H]2C=C[C@@H]3[C@H]4C/C=C\C(=O)NCCC[C@@H]5NC(=O)C(=C5O)C(=O)/C=C/[C@@H]4C[C@@H]3[C@H]2C[C@H]1C
